Values of other authors, collected in article PMC5314429, “Enhancing PET Signal at Target Tissue in Vivo: Dendritic and Multimeric Tris(hydroxypyridinone) Conjugates for Molecular Imaging of αvβ3 Integrin Expression with Gallium-68” (Bioconjugate Chemistry, 2016).

Design: method as in PMID 16821777

log K1 for Fe^3+: 32.52
pFe^3+ (pH 7.4, [Fe^3+] = 10^–6 M, [Ligand] = 10^–5 M): 28.47
SMILES: CC(=O)NC(CCC(=O)NCc1c(O)c(=O)cc(C)n1C)(CCC(=O)NCc1c(O)c(=O)cc(C)n1C)CCC(=O)NCc1c(O)c(=O)cc(C)n1C [THP-Ac]
